Read-outs that look alike come from different tables or passages of the source.
Key:
Format in all cases: in vivo
[1] = Vancomycin concentration in dermal interstitial fluid (ISF) of human participants by wearable EAB sensor; settings: 1 gram; for Kp: dermal interstitial fluid (ISF) relative to blood, intravenous, read-out: Proportion of vancomycin monitored in ISF compartment in comparison to blood; for Cmax: dermal interstitial fluid (ISF), iv, read-out: Cmax in ISF compartment
Text: These human studies followed vancomycin levels using an EAB sensor (which may also be referred to as the “device”). The device was a self-contained wearable EAB sensor, constructed, having an on-board power supply, electrodes, and electronics, including a microprocessor and BlueTooth™ communications module.
The EAB sensor comprised four electrodes: two aptamer-coated working electrodes, a counter electrode, and a reference electrode. All electrodes were in the form of a microneedle configured to pierce the skin and contact the participant's ISF when fully inserted into the dermal tissues.
Each working electrode was coated with a vancomycin-sensitive single-stranded DNA-aptamer having a length of 28 nucleobases, obtained from Dr. Milan STOJANOVIC, New York campus research laboratory of The Trustees of Columbia University in the City of New York of 80 Claremont Avenue, 4th Floor, New York, NY 10027, United States.
A vancomycin-sensitive EAB sensor was placed onto the participant's upper arm (see FIG. 20), opposite the arm where vancomycin was being infused. The time of device application was recorded. The device was applied 30 minutes (+15 minutes) prior to administering the vancomycin infusion and the device was removed up to 10 hours post-cessation of the infusion.
(§1) 30 minutes (+15 minutes) post-application of the device, the participant received a single dose of vancomycin as an intravenous infusion (1 gram over 1 hour 40 minutes). The time of administration and completion of infusion was recorded.
Once applied to the participant, the DNA-based sensor electrodes were interrogated, and output treated as follows.
Square Wave Voltammetry (SWV) was used to interrogate the DNA-based sensor electrodes. Multiple steps were performed to convert the raw voltammograms obtained from the DNA-based sensor electrodes into a vancomycin concentration. The steps detailed below convert the raw SWV voltammograms into a signal that is indicative of the analyte concentration. • 1. Smooth the raw SWV voltammogram current versus voltage data to aid identification of the current peak and its magnitude. • 2. Apply a peak finding algorithm to the smoothed voltammogram to identify the position of the peak and to subtract a baseline current to determine a peak current magnitude. • 3. Use the determined peak currents magnitudes obtained at two different SWV interrogation frequencies (in this case 50 Hz and 300 Hz), when no vancomycin is present and when it is present to calculate an analyte concentration responsive signal (S). • 4. Smooth the S values over time, prior to applying a calibration function.
Steps 1 to 3 were used to analyse the calibration data as detailed below at (a) and (b), and steps 1 to 4 above in relation to the clinical data. • (a) Calibration data was produced from in vitro testing, where vancomycin is spiked into bovine plasma and tested using electrodes from the same production batch as those used in the clinical experiments (but not the electrode actually used in the clinical experiments). The purpose of this testing was to produce S versus known vancomycin concentration data that can be used to produce a calibration function to convert the S values into the corresponding measured vancomycin concentration values ([V]). • (b) Clinical experiment data, where the calibration function determined in (a) is applied to the S values produced by the in vivo electrodes in the clinical experiment, to convert them to measured vancomycin concentrations. […]

[2] = Vancomycin concentration in blood/serum of human participants (blood draws); settings: blood, iv, 1 gram, single 1 gram IV infusion over 1 hour 40 minutes
Protocol: These human studies were performed at Monash Health, Monash Medical Centre, Clayton, Victoria 3168, Australia, under protocol reference number 2021/ETH80521 and protocol trial identified and registry 80521. Institutional Ethics Committee approval was obtained before commencement of the study.
as §1
Blood samples for the measurement of vancomycin concentrations were collected prior to the administration of vancomycin infusion, 30 minutes (±5 minutes) and 1 hour (±10 minutes) during the infusion, at the end of the infusion (±15 minutes) and then at 40 minutes (±15 minutes), 1.5 hours (±15 minutes), 2 hours (±15 minutes), 3 hours (±15 minutes), 4 hours (±15 minutes), 6 hours (±15 minutes), 8 hours (±15 minutes) and 10 hours (±15 minutes) after the infusion has been completed.
These human studies characterised perfusion dynamics. The study was performed in relation to a 1000 mg vancomycin dose administered via venous infusion.
ISF dynamics are captured in real-time high resolution (every 5 minutes) detection of vancomycin concentration. […] In comparison to blood (Cmax, ~30 mg/L) very little vancomycin was monitored in the ISF compartment (Cmax~6 mg/L) which is interpreted as a low level of perfusion

[3] = Skin surface temperature / adverse event monitoring of human participants during vancomycin infusion; settings: for Physiologic response (skin surface temperature): temperature every 5 minutes
Text: Reference is made to FIG. 21A and FIG. 21B each showing a computer-rendered representation of the device (10) used in these studies, indicating one of the microneedles (30), the power supply, being a battery (105), a printed circuit board (110) having various electronic components such as the communications module and microprocessor mounted thereon, and a thermistor (115) functioning to contact the skin surface of the participant and provide an estimation of the temperature of the underlying ISF.
Participants were monitored throughout the study duration for any adverse events. Given the duration of the study visit, participants were required to stay overnight. In the absence of any adverse events, participants were discharged the following morning after being observed for at least 15 minutes post removal of the device.
The EAB sensor used in these studies penetrated 1-2 mm into the dermal interstitial compartment with micron diameter electrodes coated with a specific DNA sequence for vancomycin detection. Additionally, the EAB sensor continuously monitored (every 5 minutes) surface temperature where the normal temperature range for a human is characterised between 31-35.5° C.

[4] = participant 014 (hyper-perfusion phenotype)

## CN[C@H](CC(C)C)C(=O)N[C@H]1C(=O)N[C@@H](CC(N)=O)C(=O)N[C@H]2C(=O)N[C@H]3C(=O)N[C@H](C(=O)N[C@H](C(=O)O)c4cc(O)cc(O)c4-c4cc3ccc4O)[C@H](O)c3ccc(c(Cl)c3)Oc3cc2cc(c3O[C@@H]2O[C@H](CO)[C@@H](O)[C@H](O)[C@H]2O[C@H]2C[C@](C)(N)[C@H](O)[C@H](C)O2)Oc2ccc(cc2Cl)[C@H]1O [vancomycin]
[1]; [4]
  Kp: ~0.86
[1]; participant 015 (moderate-perfusion phenotype)
  Kp: ~0.3
[1]; participant 012 (hypo-perfusion phenotype), EAB sensor 812, single 1 gram IV infusion, read every 5 minutes
  Cmax: ~6000 ng/mL
[1]; participant 014 (hyper-perfusion phenotype), EAB sensor 810, single 1 gram IV infusion
  Cmax: ~10000 ng/mL
[1]; participant 015 (moderate-perfusion phenotype), EAB sensor 818, single 1 gram IV infusion, read every 5 minutes
  Cmax: ~10000 ng/mL
[2]; participant 012 (hypo-perfusion phenotype), 12 blood draws over 12 hours
  Cmax: ~30000 ng/mL
[2]; [4]
  Cmax: ~35000 ng/mL
[2]; participant 015 (moderate-perfusion phenotype), 12 blood draws over 12 hours
  Cmax: ~30000 ng/mL
[3]; participant 012, no elevations above 36° C.
  Physiologic response (skin surface temperature): no physiologic response
[3]; participant 014, temperature elevations above 36° C. recorded, antihistamine treatment required
  Adverse reaction to vancomycin: sensitivity response to vancomycin which resulted in hives and itching
[3]; participant 015
  Physiologic response (skin surface temperature): no elevations depicting a physiological response
